{
  "source": "patent US20070066587A1",
  "about": "“Substituted azetidine compounds, their preparation and use as medicaments” (LABORATORIOS DEL DR. ESTEVE S.A, priority 2004, published 2007)",
  "type_in_all_cases": "in vivo",
  "key": {"Male NMRI mice [1]": {"tested_on": "Male NMRI mice", "test": "Mouse tetrad model, hot plate analgesia, agonistic effect", "conditions": "5 mg/kg i.v., 15 minutes after injection", "text": "(§1) Substances with affinity for cannabinoid receptors are known to produce a wide range of pharmacological effects. It is also known that intravenous administration of a substance with affinity for cannabinoid receptors in mice produces analgesia, hypothermia, sedation and catalepsy. Individually, none of these effects can be considered as proof that a tested substance has affinity for cannabinoid-receptors, since all of these effects are common for various classes of centrally active agents. However, substances, which show all of these effects, i.e. substances that are active in this so-called tetrad model are considered to have affinity for the cannabinoid receptors. It has further been shown that cannabinoid receptor antagonists are higly effective in blocking the effects of a cannabinoid agonist in the mouse tetrad model.\n(§2) The tetrad model is described, for example, in the publication of A. C. Howlett et al, International Union of Pharmacology XXVII. […]\n(§3) Before testing in the behavioral procedures given below, mice are acclimatized to the experimental setting. Pre-Treatment control values are determined for analgesia hot plate latency (in seconds), rectal temperature, sedation and catalepsy.\n(§4) In order to determine the agonistic activty of the substance to be tested, the mice are injected intravenously with the substance to be tested or the vehicle alone. 15 minutes after injection, latency in hot plate analgesia is measured. Rectal temperature, sedation and catalepsy are measured 20 minutes after injection.\nThe hot plate analgesia is determined according to the method described in Woolfe D. et al. “The evaluation of analgesic action of pethidine hydrochloride (Demerol)”, J. Pharmacol. Exp. Ther. 80, 300-307, 1944. […]\nThe mice are placed on a hot plate (Harvard Analgesimeter) at 55±0.5° C. until they show a painful sensation by licking their paws or jumping and the time for these sensations to occur is recorded. This reading is considered the basal value (B). […]\nThe degree of analgesia is calculated from the formula: % MPE of Analgesia=(PT-B)/(PC-B)×100 MPE=Maximum possible effect."}, "Male NMRI mice [2]": {"tested_on": "Male NMRI mice", "test": "Mouse tetrad model, hypothermia, agonistic effect", "conditions": "5 mg/kg i.v., 20 minutes after injection", "text": "as §1\n(§5) The tetrad model is described, for example, in the publication of A. C. Howlett et al, International Union of Pharmacology XXVII. Classification of Cannabinoid Receptors, Pharmacol Rev 54, 161-202, 2002 and David R. Compton et al., “In-vivo Characterization of a Specific Cannabinoid Receptor Antagonist (SR141716A): Inhibition of Tetrahydrocannbinol-induced Responses and Apparent Agonist Activity”, J. Pharmacol. Exp. Ther. 277 , 2, 586-594, 1996. The corresponding parts of the description are hereby incorporated by reference.\n(§6) Male NMRI mice with a weight of 20-30 g (Harlan, Barcelona, Spain) are used in all of the following experiments.\nas §3, §4\nHypothermia is determined according to the method described in David R. Compton et al. “In-vivo Characterization of a Specific Cannabinoid Receptor Antagonist (SR141716A) Inhibition of Tetrahydrocannbinol-induced Responses and Apparent Agonist Activity”, J. Pharmacol Exp Ther. 277, 2, 586-594, 1996. The respective description is hereby incorporated by reference and forms part of the present disclosure.\nThe base-line rectal temperatures are determined with a thermometer (Yello Springs Instruments Co., Panlabs) and a thermistor probe inserted to 25 mm before the administration of the substance to be tested. Rectal temperature is again measured 20 minutes after the administration of the substances to be tested. The temperature difference is calculated for each animal, whereby differences of ≧−2° C. are considered to represent activity."}, "Male NMRI mice [3]": {"tested_on": "Male NMRI mice", "test": "Mouse tetrad model, catalepsy, agonistic effect", "conditions": "5 mg/kg i.v., 20 minutes after injection", "text": "as §1, §5, §6, §3, §4\nCatalepsy is determined according to the method described in Alpermann H. G. et al. “Pharmacological effets of Hoe 249: A new potential antidepressant”, Drugs Dev. Res. 25, 267-282. 1992. The respective description is hereby incorporated by reference and forms part of the present disclosure.\nThe cataleptic effect of the substance to be tested is evaluated according to the duration of catalepsy, whereby the animals are placed head downwards with their kinlegs upon the top of the wooden block.\nThe chosen scoring system is:\nThe percentage of catalepsy is determined according ot the following formula: % Catalepsy=arithmetic mean/6×100"}, "Male NMRI mice [4]": {"tested_on": "Male NMRI mice", "test": "Mouse tetrad model, sedation, agonistic effect", "conditions": "5 mg/kg i.v., 20 minutes after injection", "text": "as §1, §5, §6, §3, §4\nDetermination of Sedation and Ataxia\nSedation and ataxia is determined according to the method described in Desmet L. K. C. et al. “Anticonvulsive properties of Cinarizine and Flunarizine in Rats and Mice”, Arzneim.-Forsch. (Frug Res) 25, 9, 1975. The respective description is hereby incorporated by reference and forms part of the present disclosure.\nThe chosen scoring system is\n2: obvious calmness and quiet;\nprior to as well as after treatment.\n(§7) The percentage of sedation is determined according to the formula: % of sedation=arithmetic mean/3×100"}, "Male NMRI mice [5]": {"tested_on": "Male NMRI mice", "test": "Mouse tetrad model, hypothermia, antagonistic effect against Win 55212-2", "conditions": "5 mg/kg i.v. prior to Win 55212-2 1.25 mg/kg i.v.", "text": "as §1, §2, §3\n(§8) In order to determine the antagonistic activity the identical procedure is used as for the determination of the agonistic effects, but with the difference that the substance to be evaluated for its antagonistic activity is injectected 5 minutes before the intravenous injection of 1.25 mg/kg Win-55,212 a known cannabinoid-receptor agonist.\nHypothermia is determined according to the method described in David R. Compton et al. “In-vivo Characterization of a Specific Cannabinoid Receptor Antagonist (SR141716A) Inhibition of Tetrahydrocannbinol-induced Responses and Apparent Agonist Activity”, J. Pharmacol Exp Ther. 277, 2, 586-594, 1996. […]\nThe base-line rectal temperatures are determined with a thermometer (Yello Springs Instruments Co., Panlabs) and a thermistor probe inserted to 25 mm before the administration of the substance to be tested. […]"}, "Male NMRI mice [6]": {"tested_on": "Male NMRI mice", "test": "Mouse tetrad model, sedation, antagonistic effect against Win 55212-2", "conditions": "5 mg/kg i.v. prior to Win 55212-2 1.25 mg/kg i.v.", "text": "as §1, with “It has further been shown that cannabinoid receptor antagonists are higly effective in blocking the effects of a cannabinoid agonist in the mouse tetrad model.” left out\nas §3\nas §8, with “agonist. […]” for “agonist.”\nas §7"}},
  "data": [
    {"compound": "C[C@@H]1[C@@H](OS(=O)(=O)c2ccc(F)cc2)CN1C(c1ccc(Cl)cc1)c1ccc(Cl)cc1", "note": "(relative stereo) [Example 1, 4-Fluoro-benzenesulfonic acid 1-[trans-bis-(4-chloro-phenyl)-methyl]-2-methyl-azetidin-3-yl ester]", "values": [
      {"measurement": "Agonistic effect A: Hot-Plate test", "setting": "Male NMRI mice [1]", "result": 5},
      {"measurement": "Agonistic effect B: Hypothermia", "setting": "Male NMRI mice [2]", "result": 0},
      {"measurement": "Agonistic effect C: Catalepsy", "setting": "Male NMRI mice [3]", "result": 0},
      {"measurement": "Agonistic effect D: Sedation", "setting": "Male NMRI mice [4]", "result": 0},
      {"measurement": "Antagonistic Effect B: Hypothermia", "setting": "Male NMRI mice [5]", "result": 100},
      {"measurement": "Antagonistic Effect D: Sedation", "setting": "Male NMRI mice [6]", "result": 20}
    ]},
    {"compound": "C[C@@H]1[C@@H](NS(=O)(=O)c2ccc(S(C)(=O)=O)cc2)CN1C(c1ccc(Cl)cc1)c1ccc(Cl)cc1", "note": "(relative stereo) [Example 14, N-{trans-1-[Bis-(4-chloro-phenyl)-methyl]-2-methyl-azetidin-3-yl}-4-methylsulfonyl-benzenesulfonamide]", "values": [
      {"measurement": "Agonistic effect B: Hypothermia", "setting": "Male NMRI mice [2]", "result": 0},
      {"measurement": "Agonistic effect C: Catalepsy", "setting": "Male NMRI mice [3]", "result": 0},
      {"measurement": "Agonistic effect D: Sedation", "setting": "Male NMRI mice [4]", "result": 0},
      {"measurement": "Antagonistic Effect D: Sedation", "setting": "Male NMRI mice [6]", "result": 9}
    ]},
    {"compound": "C[C@@H]1[C@@H](NS(=O)(=O)c2cccc3nsnc23)CN1C(c1ccc(Cl)cc1)c1ccc(Cl)cc1", "note": "(relative stereo) [Example 15, 2,1,3-Benzothiadiazole-4-sulfonic acid {trans-1-[bis-(4-chloro-phenyl)-methyl]-2-methyl-azetidin-3-yl}-amide]", "values": [
      {"measurement": "Agonistic effect B: Hypothermia", "setting": "Male NMRI mice [2]", "result": 0},
      {"measurement": "Agonistic effect C: Catalepsy", "setting": "Male NMRI mice [3]", "result": 0},
      {"measurement": "Agonistic effect D: Sedation", "setting": "Male NMRI mice [4]", "result": 0},
      {"measurement": "Antagonistic Effect B: Hypothermia", "setting": "Male NMRI mice [5]", "result": 100}
    ]},
    {"compound": "C[C@H]1[C@H](NS(=O)(=O)c2ccc(F)cc2)CN1C(c1ccc(Cl)cc1)c1ccc(Cl)cc1", "note": "[Example 5, N-{(2S,3R)-1-[Bis-(4-chloro-phenyl)-methyl]-2-methyl-azetidin-3-yl}-4-fluoro-benzenesulfonamide]", "values": [
      {"measurement": "Agonistic effect A: Hot-Plate test", "setting": "Male NMRI mice [1]", "result": 2},
      {"measurement": "Agonistic effect B: Hypothermia", "setting": "Male NMRI mice [2]", "result": 0},
      {"measurement": "Agonistic effect C: Catalepsy", "setting": "Male NMRI mice [3]", "result": 0},
      {"measurement": "Agonistic effect D: Sedation", "setting": "Male NMRI mice [4]", "result": 0},
      {"measurement": "Antagonistic Effect B: Hypothermia", "setting": "Male NMRI mice [5]", "result": 100}
    ]},
    {"compound": "C[C@H]1[C@H](NS(=O)(=O)c2cccs2)CN1C(c1ccc(Cl)cc1)c1ccc(Cl)cc1", "note": "[Example 6, Thiophene-2-sulfonic acid {(2S,3R)-1-[bis-(4-chloro-phenyl)-methyl]-2-methyl-azetidin-3-yl}-amide]", "values": [
      {"measurement": "Agonistic effect A: Hot-Plate test", "setting": "Male NMRI mice [1]", "result": 0},
      {"measurement": "Agonistic effect B: Hypothermia", "setting": "Male NMRI mice [2]", "result": 0},
      {"measurement": "Agonistic effect C: Catalepsy", "setting": "Male NMRI mice [3]", "result": 0},
      {"measurement": "Agonistic effect D: Sedation", "setting": "Male NMRI mice [4]", "result": 0}
    ]}
  ]
}
